Each structure is given as a SMILES string. ≈ marks a conversion by molar mass, not a printed value.

One experiment concerns Bacillus cereus. As to the kind of experiment: M.I.C. by broth dilution method (NCCLS 1988), gram-positive bacteria. The class given is cell-based. Particulars: in vitro broth dilution. Summed up: (§1)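 MIC values were obtained by broth dilution following NCCLS 1988 against gram-positive strains including Bacillus subtilus ATCC 6633, Streptococcus faecium and Staphylococcus ATCC 6538. Enrofloxacin served as reference. Compound stocks were 1 000 μg/ml in aqueous KOH or KOH/DMF.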

Experiment [1] concerns Micrococcus Luteus (ATCC 9341). The experiment is described as above. Type of experiment: cell-based. Particulars: ATCC9341, in vitro broth dilution, read-out: M.I.C. values Microc. Luteus. In outline:
as §1

Another experiment deals with Streptococcus faecium. The experiment is described as above. Type of experiment: cell-based. Particulars: Enterococcus faecium, in vitro broth dilution, read-out: M.I.C. values Streptoc. faecium. Summed up: as §1
For experiment [2], the system named is Bacillus subtilus (ATCC 6633). The experiment is described as above. Type of experiment: cell-based. Particulars: ATCC6633, in vitro broth dilution. Summed up: as §1
The subject of experiment [3] is Staph. epidermidis (ATCC 12228). The experiment is described as above. The class given is cell-based. Particulars: Staphylococcus epidermidis, ATCC12228, in vitro broth dilution. In outline: as §1
The test system of experiment [4] is Staphylococcus (ATCC 6538). The description is as above. The class given is cell-based. Particulars: ATCC6538, in vitro broth dilution, read-out: M.I.C. values Staph. (ATCC 6538). In outline: as §1
Experiment [5] relates to Staph. aureus (ATCC 29737). The experiment is described as above. Particulars: Staphylococcus aureus, ATCC29737, in vitro broth dilution. The class given is cell-based. In outline: as §1
In another experiment the test system is gram-positive bacteria. Briefly: Antibacterial activity against gram-positive bacteria, overall comparison with enrofloxacin. The class given is cell-based. Particulars: seven gram-positive strains of Table 6. The method, then: The antibacterial activity of the present compounds was investigated by in vitro evaluation of their M.I.C. (Minimum Inhibitory Concentration) values. The evaluation was conducted in complete accordance with the “Broth dilution method”, as outlined by the U.S. National Committee for Clinical Laboratory Standards “NCCLS 1988”.
Solutions of the present compounds were prepared by dissolving 0.01 g of a test compound in either 10% KOH (aq) or a 10% KOH/DMF mixture, after which sterile, distilled H2O was added up to a total volume of 10 ml, thereby yielding a test compound concentration of 1 000 μg/ml.
In this evaluation, the antibacterial activity of the present compounds and enrofloxacin as reference compound was tested against seven strains of gram-positive bacteria, namely Bacillus subtilus (ATCC 6633), Bacillus cereus, Streptococcus faecium, Micrococcus Luteus (ATCC 9341), Staph. aureus (ATCC 29737), Staph. epidermidis (ATCC 12228) and Staphylococcus (ATCC 6538).

Experiment [6] concerns E. mitis, E. hagani, E. praecox, E. acervulina, E. maxima, E. necatrix, E. tenella and E. brunetti. As to the kind of experiment: Prophylactic anticoccidial effect in chickens of Arbor Aker breed (8 Eimeria strains). The class given is in vivo. The settings on record: 100 ppm in feed from day 3, infected day 7. On the procedure:
JA 12, JA 39 and JA 42 was also evaluated in chickens of Arbor Aker breed. These trials were conducted by using basically the same test protocol as that used for the chickens of Habbared X breed, albeit with the following modifications:
• i) On day 3 after hatch, the tested groups of chickens received feed containing 100 ppm of JA 12, JA 39, JA 42 or Coxistac (60 ppm); • ii) On day 7 after hatch, the chickens were infected orally by oocysts containing a mixture of 8 mature sporulated strains, namely E. mitis, E. hagani, E. praecox, E. acervulina, E. maxima, E. necatrix, E. tenella and E. brunetti.

Experiment [7] relates to Eimeria acervulina, E. maxima, E. necatrix, E. tenella and E. brunetti. As to the kind of experiment: Prophylactic anticoccidial activity in chickens of Habbared X breed (5 Eimeria strains). Type of experiment: in vivo. The method, then:
The anticoccidial activity of the present compounds as prophylactic agents was evaluated in vivo on […] one day old (1 day after hatch) chickens of Habbared X breed. The chickens were divided into four groups of 20 birds each, and each group was located in a separate pen (1 m×1 m). The chickens were then fed with unmedicated food up to day 7 after hatch. Fresh water was supplied ad libitum .
On day 8 after hatch, the four groups were fed as follows (1 ppm=1 mg drug/kg feed): • Group #1: feed containing JA 39 (100 ppm); • Group #2: feed containing JA 42 (100 ppm); • Group #3: feed containing Coxistac (60 ppm), a known anticoccidial agent (see U.S. Pat. No. 3,857,948);
Group #4: feed containing no drug (control group).
The chickens were fed as above on day 8 and 9 after hatch. On day 10 after hatch, each chicken was infected orally by 6 000-7 000 oocysts containing a mixture of 5 mature sporulated strains, namely Eimeria acervulina, E. maxima, E. necatrix, E. tenella and E. brunetti. The groups #1-3 received drug as above from day 10 to 21 after hatch.
From day 14 to 21 after hatch, fresh fecal droplets were collected and examined daily. The average number of oocysts/g faeces was then calculated in accordance with the so-called Mc-Master technique (Soulsby, E. J., Helminths, Arthropods & Protozoa of domesticated animals, p. 789, 6th Ed., Williams & Wilkins Co. Baltimore (USA), Tindall & Cassell Ltd., London, 1968). The final weight of and mean total amount of feed consumed by each bird were also examined, and the results are summarized in Table 8 hereinbelow.

Take `COc1ccc(S(=O)(=O)N2CCN(c3cc4c(cc3F)c(=O)c(C(=O)O)cn4C3CC3)CC2)cc1` [JA 4, 1-cyclopropyl-6-fluoro-7-{4-[(4-methoxyphenyl)sulfonyl]-1-piperazinyl}-4-oxo-1,4-dihydro-3-quinolinecarboxylic acid]: the MIC with Bacillus cereus worked out at 0.01 µg/mL (≈ 0.0199 µM); in experiment [1] it was 0.25 µg/mL (≈ 0.498 µM); with Streptococcus faecium, 0.06 µg/mL (≈ 0.12 µM); in experiment [2], 0.01 µg/mL (≈ 0.0199 µM); in [3], 0.03 µg/mL (≈ 0.0598 µM); in experiment [4], 0.01 µg/mL (≈ 0.0199 µM). Further, in experiment [5], the MIC was 0.06 µg/mL (≈ 0.12 µM). Also, the “antibacterial activity against gram-positive bacteria compared to that of enrofloxacin” value in the experiment on gram-positive bacteria is reported as “clearly superior”.

Consider `O=C(O)c1cn(C2CC2)c2cc(N3CCN(c4cncc(Cl)n4)CC3)c(F)cc2c1=O` [JA 39, 7-[4-(6-chloro-2-pyrazinyl)-1-piperazinyl]-1-cyclopropyl-6-fluoro-4-oxo-1,4-dihydro-3-quinolinecarboxylic acid], for which the MIC against Bacillus cereus turned out to be 0.01 µg/mL (≈ 0.0225 µM); in [1] it was 1 µg/mL (≈ 2.25 µM); in the experiment on Streptococcus faecium it was 0.25 µg/mL (≈ 0.563 µM); in [2] it was 0.06 µg/mL (≈ 0.135 µM); in experiment [3], 0.01 µg/mL (≈ 0.0225 µM); in experiment [4], 0.03 µg/mL (≈ 0.0676 µM). In [5], this compound displayed an MIC of 0.12 µg/mL (≈ 0.27 µM). The “prophylactic anticoccidial effect (in words)” value in experiment [6] is listed as “essentially the same as those reported for the trials with the chickens of Habbared X breed”. In [7] (chickens of Habbared X breed, 100 ppm in feed), the “anticoccidial effect (in words)” value is recorded as “excellent anticoccidial effect”. Moreover, the “Average number of Eimeria spp. oocysts/g faeces, day after hatch 14” value in experiment [7] (day 14 after hatch, drug in feed (JA 39, JA 42 100 ppm; Coxistac 60 ppm), infected day 10) was 0.0 oocysts/g faeces. Moreover, the “Average number of Eimeria spp. oocysts/g faeces, day after hatch 15” value in [7] (day 15 after hatch, drug in feed (JA 39, JA 42 100 ppm; Coxistac 60 ppm), infected day 10) amounted to 4000 oocysts/g faeces. Moreover, the “Average number of Eimeria spp. oocysts/g faeces, day after hatch 16” value in experiment [7] (day 16 after hatch, drug in feed (JA 39, JA 42 100 ppm; Coxistac 60 ppm), infected day 10) is recorded as 5000 oocysts/g faeces. The “Average number of Eimeria spp. oocysts/g faeces, day after hatch 17” value in [7] (day 17 after hatch, drug in feed (JA 39, JA 42 100 ppm; Coxistac 60 ppm), infected day 10) came to 3000 oocysts/g faeces. In addition, the “Average number of Eimeria spp. oocysts/g faeces, day after hatch 18” value in [7] (day 18 after hatch, drug in feed (JA 39, JA 42 100 ppm; Coxistac 60 ppm), infected day 10) turned out to be 0.0 oocysts/g faeces. In addition, the “Average number of Eimeria spp. oocysts/g faeces, day after hatch 19” value in experiment [7] (day 19 after hatch, drug in feed (JA 39, JA 42 100 ppm; Coxistac 60 ppm), infected day 10) worked out at 0.0 oocysts/g faeces. In experiment [7] (day 21 after hatch, drug in feed (JA 39, JA 42 100 ppm; Coxistac 60 ppm), infected day 10), the “Average number of Eimeria spp. oocysts/g faeces, day after hatch 21” value was 0.0 oocysts/g faeces. In addition, the “Mean body weight” value in experiment [7] (final weight, infected chickens, drug in feed (JA 39, JA 42 100 ppm; Coxistac 60 ppm)) came to 68.2 g. In experiment [7] (mean total feed per bird, infected chickens, drug in feed (JA 39, JA 42 100 ppm; Coxistac 60 ppm)), the “Mean amount of feed consumed” value is on record as 81 g. For the same compound, the “Average number of Eimeria spp. oocysts/g faeces, Total” value in experiment [7] (total of days 14-21 after hatch, drug in feed (JA 39, JA 42 100 ppm; Coxistac 60 ppm)) was 12000 oocysts/g faeces. Moreover, in the experiment on gram-positive bacteria, the “antibacterial activity against gram-positive bacteria compared to that of enrofloxacin” value is on record as “clearly superior”.

Source of the values: patent publication US6967205B1, “Compounds with antibacterial and antiparasitic properties” (New Pharma Research Sweden AB, priority 1999, dated 2005).
